The numbers were not newly measured in patent publication US12156864B2, “Analogs of cyclobenzaprine and amitryptilene” (TONIX PHARMACEUTICALS HOLDING CORP, priority 2017, dated 2024), which cites them from elsewhere.

Data set [1] concerns the target histaminergic1 (H1) receptor (Homo sapiens, UniProt P35367).
For data set [2], the system named is fibromyalgia patients. The settings on record: cyclobenzaprine 10 to 40 mg, 12-week period.
Data set [3] relates to α1-adrenergic receptor.
Data set [4] concerns patients. The settings on record: oral doses sufficient to treat PTSD-associated sleep disorders.
Data set [5] deals with serotonin-2A (5-HT2A) receptor (Homo sapiens, UniProt P28223).
Sequence of serotonin-2A (5-HT2A) receptor (P28223 whole entry, species assumed): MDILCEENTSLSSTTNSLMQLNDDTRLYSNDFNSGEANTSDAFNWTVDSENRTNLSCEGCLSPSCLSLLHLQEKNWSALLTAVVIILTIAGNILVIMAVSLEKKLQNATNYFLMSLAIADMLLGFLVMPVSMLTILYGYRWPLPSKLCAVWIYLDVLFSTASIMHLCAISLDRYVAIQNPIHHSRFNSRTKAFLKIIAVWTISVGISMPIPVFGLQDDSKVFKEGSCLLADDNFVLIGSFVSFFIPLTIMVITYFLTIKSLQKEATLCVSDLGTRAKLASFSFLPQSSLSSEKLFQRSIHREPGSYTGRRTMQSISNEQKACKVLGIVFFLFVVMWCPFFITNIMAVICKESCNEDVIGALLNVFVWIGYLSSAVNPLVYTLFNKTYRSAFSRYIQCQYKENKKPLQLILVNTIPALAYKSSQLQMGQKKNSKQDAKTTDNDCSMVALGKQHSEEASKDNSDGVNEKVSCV
Data set [6] deals with PTSD combat subsample. The note with it: combat subsample (N=77) of a pooled analysis.
Data set [7] has as its system veterans and males with PTSD.
For data set [8] the following is noted: humans; metabolite formed via pathway b (N-dealkylation).

The structures appear in SMILES notation.

Sequence of histaminergic1 (H1) receptor (P35367 whole entry): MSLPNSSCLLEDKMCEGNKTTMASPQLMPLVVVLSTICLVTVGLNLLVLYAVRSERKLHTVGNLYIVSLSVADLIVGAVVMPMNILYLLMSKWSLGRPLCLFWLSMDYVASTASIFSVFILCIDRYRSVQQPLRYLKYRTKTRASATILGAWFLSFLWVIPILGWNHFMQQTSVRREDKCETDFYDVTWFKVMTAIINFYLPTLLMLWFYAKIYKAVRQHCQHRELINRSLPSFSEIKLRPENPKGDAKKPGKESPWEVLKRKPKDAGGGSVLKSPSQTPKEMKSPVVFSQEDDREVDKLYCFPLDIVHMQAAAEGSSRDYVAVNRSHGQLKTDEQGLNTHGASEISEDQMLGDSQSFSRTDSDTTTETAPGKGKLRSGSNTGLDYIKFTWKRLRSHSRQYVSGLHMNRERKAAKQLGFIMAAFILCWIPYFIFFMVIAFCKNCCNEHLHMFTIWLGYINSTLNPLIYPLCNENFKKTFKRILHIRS

`CN(C)CCC=C1c2ccccc2C=Cc2ccccc21` [cyclobenzaprine, 3-(5H-dibenzo[a,d]cyclohepten-5-ylidene)-N,N-dimethyl-1-propanamine]: the “binding and antagonist activity at H1 receptor” value in data set [1] is “high affinity binding and antagonist activity”. Moreover, in data set [2], the “quality of sleep and pain score” value is reported as “significantly improved”; the “total number of tender points and muscle tightness” value was “reduction”. The “binding and antagonist activity at α1-adrenergic receptor” value in data set [3] was “high affinity binding and antagonist activity”. In addition, the next-day side effect entry in data set [4] is recorded as “drowsiness the next day”. Further, the “binding and antagonist activity at 5-HT2A receptor” value in data set [5] was “high affinity binding and antagonist activity”.
`COc1ccc(C(CN(C)C)C2(O)CCCCC2)cc1` (stereo not drawn) [venlafaxine ER]: in data set [6], the “effect on PTSD or disability” value is recorded as “no effect”.
With `CN[C@H]1CC[C@@H](c2ccc(Cl)c(Cl)c2)c2ccccc21` [Sertraline], the “efficacy in PTSD” value in data set [7] is “failed to show efficacy”.
`CNCCC=C1c2ccccc2C=Cc2ccccc21` [nor-cyclobenzaprine]: the half-life in data set [8] is approximately 48 h.

By half-life is commonly meant how long it takes for the measured level to halve.
